Our source for the Km values is publication PMC6584016, “A new lipoxygenase from the agaric fungus Agrocybe aegerita: Biochemical characterization and kinetic properties” (PLoS ONE, 2019).

The target in the assay is T1, AaeLOX4 (Cyclocybe aegerita, UniProt A0A4D6T4S4).
T1 construct: gene lox4; codon-optimized gene in pET28a, E. coli BL21(DE3) Gold; HisTrap and gel filtration, tag cleavage not mentioned; predicted 79 kDa
T1 sequence (A0A4D6T4S4 1-710): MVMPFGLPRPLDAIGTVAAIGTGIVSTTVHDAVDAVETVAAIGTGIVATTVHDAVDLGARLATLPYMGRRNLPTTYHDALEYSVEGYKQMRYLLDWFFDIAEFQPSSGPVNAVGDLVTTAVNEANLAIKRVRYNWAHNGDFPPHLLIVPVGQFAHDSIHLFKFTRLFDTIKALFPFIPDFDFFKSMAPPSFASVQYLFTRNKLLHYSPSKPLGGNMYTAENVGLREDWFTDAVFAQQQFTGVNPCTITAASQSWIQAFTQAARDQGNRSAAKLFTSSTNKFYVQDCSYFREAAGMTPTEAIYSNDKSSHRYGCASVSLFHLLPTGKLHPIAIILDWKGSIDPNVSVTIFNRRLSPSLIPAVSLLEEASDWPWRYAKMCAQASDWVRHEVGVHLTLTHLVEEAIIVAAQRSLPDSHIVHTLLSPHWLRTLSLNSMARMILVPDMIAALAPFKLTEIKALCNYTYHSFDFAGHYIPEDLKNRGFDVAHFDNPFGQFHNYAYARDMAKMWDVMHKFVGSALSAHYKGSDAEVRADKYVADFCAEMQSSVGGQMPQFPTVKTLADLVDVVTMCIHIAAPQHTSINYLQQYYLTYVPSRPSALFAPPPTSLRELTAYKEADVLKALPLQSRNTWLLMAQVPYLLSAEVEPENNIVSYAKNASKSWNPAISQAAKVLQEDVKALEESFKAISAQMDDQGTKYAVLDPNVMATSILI
Nature of the assay: conjugated diene formation at […] nm; Lineweaver-Burk. Format: biochemical. To be noted: 50 mM phosphate pH 7.5, 25 °C; substrate dispersed with Tween 20; 0.025-2 mM.

One may read the Km as the substrate concentration at which the rate is half of its maximum.

For `CC/C=C\C/C=C\C/C=C\CCCCCCCC(=O)O` [linolenic acid], the Michaelis-Menten constant (Km) is 634 µM.

As to `CCCCC/C=C\C/C=C\CCCCCCCC(=O)O` [linoleic acid], the Michaelis constant (Km) is 295 µM.
